Here are results for 16 compounds from patent US4831170A, “Pharmaceutically active phospino-hydrocarbon-group VIII-metal complexes, antitumor compositions containing these complexes, and a process for preparing said compounds or antitumor compositions” (priority 1985, dated 1989).

Values joined by “and” are separate entries in the source; they are usually repeats but may differ in a detail not shown here. Equal entries are not always repeated.

The test system of one assay is P388 murine leukemia. Briefly: Antitumor activity against P388 murine leukemia in CDF1 mice. As to conditions: 1 x on day 1; for P 388 Dose producing the maximum % T/C: administered ip; for P 388 Maximum % T/C: median survival time treated/saline control x 100, ip, active if ≥125. The assay is classed as in vivo. As for the experimental part: (§1) All of the metal complexes were tested for antitumor activity against P388 murine leukemia. Selected compounds were also tested for antitumor activity against L1210 murine leukemia and a subline of L1210 murine leukemia resistant to cisplatin (L1210:DDP). CDF1 mice weighing 20 grams were inoculated intraperitoneally with 10^6 ascites cells of P388 leukemia, L1210 leukemia or L1210:DDP leukemia, depending on the test system being used. Drug administration was initiated the day following tumor implantation in all test systems. The complexes were administered at various dose levels by intraperitoneal injection. Groups of four to six mice were used for each dose level and they were treated with the complex on day one only. A group of ten saline treated control mice was included in each experiment. Cisplatin treated groups were included as a positive control in each experiment. The mice were weighed before treatment and again on day five or six and the average weight change used as a measure of toxicity. The animals were observed daily for mortality and the experiments terminated after 30 days. Antitumor activity was determined based on % T/C, which is the ratio of the median survival time of the drug treated group to the median survival time of the saline treated control group times 100. The saline treated mice usually have a median survival time of 9 days with P388 leukemia and 7 days with L1210 and L1210/DDP leukemia. A complex is considered active if it produces a % T/C of ≥125.
(§2) Tables II and IIa contain summaries of the evaluations of the compounds for antitumor activity against the murine leukemias. Listed for each compound is the maximum % T/C achieved and the dose producing that effect.
(§3) For the in vitro cytotoxicity studies the drugs were dissolved or suspended, depending on their solubility, in 0.9% NaCl solution. Occasionally, 5% dextrose in water or 10% DMSO in 0.9% NaCl was used. The compounds were prepared for in vivo treatment by dissolving or suspending, with the addition of minimal amounts of Tween 80, in water.

The next assay concerns B16 Melanoma. Briefly: Antitumor activity against B16 Melanoma in BDF1 mice. The assay is classed as in vivo. As to conditions: for B 16 Dose producing the maximum % T/C: administered ip, days 1-9; for B 16 Maximum % T/C: median survival time vs saline control, ip, daily days 1-9, active if ≥125, figures separated by slashes are from separate experiments. On the procedure:
Several of the metal complexes were additionally evaluated for antitumor activity against B16 Melanoma. BDF1 mice, 10 per group, were inoculated intraperitoneally with 0.5 ml of a 10 percent (w:v) brei of B16 Melanoma. Intraperitoneal treatment with the metal complexes was initiated one day after implant and continued daily for a total of nine days. From 4 to 5 doses were tested for each compound under study. A saline treated control group and cisplatin treated groups were included in each experiment. The mice were observed daily for survivors and the experiments terminated after 60 days. […] The median survival time of the drug treated mice relative to that of the controls (% T/C) was used as a measure of antitumor activity.
Occasionally, 5% dextrose in water or 10% DMSO in 0.9% NaCl was used. The compounds were prepared for in vivo treatment by dissolving or suspending, with the addition of minimal amounts of Tween 80, in water.

A further assay deals with L1210 murine leukemia. Briefly: Antitumor activity against L1210 murine leukemia in CDF1 mice. As to conditions: day 1; for L1210 Dose producing the maximum % T/C: administered ip; for L1210 Max. % T/C: median survival time treated/saline control x 100, ip, active if ≥125. The assay is classed as in vivo. On the procedure: as §1, §2, §3
Assay [1] relates to L1210 murine leukemia resistant to cisplatin (L1210:DDP). Nature of the assay: Antitumor activity against cisplatin-resistant L1210 murine leukemia (L1210/DDP) in CDF1 mice. The assay is classed as in vivo. As to conditions: cisplatin-resistant subline, day 1; for L1210/DDP Dose producing the maximum % T/C: administered ip; for L1210/DDP Max. % T/C: done concomitantly with L1210 test, ip, active if ≥125. On the procedure:
as §1, §2, §3

In assay [2] the test system is B16-F10 murine melanoma cells. Briefly: In vitro cytotoxicity, B16-F10 murine melanoma cells (72 h, crystal violet). It is filed as cell-based. As for the experimental part:
(§4) Logarithmically growing cells were harvested by mild trypsinization and 4000 cells were added to each well of a 96-well microtiter plate (Costar). […] The cells were then treated with a metal complex or cisplatin and incubated for 72 hours. The plates were inverted and shaken to remove media, drug and detached cells. […] The fixative was removed, the plates air dried, stained with 0.0075% crystal violet for 15 minutes, washed twice and air dried. The stain was solubilized with 0.2 ml of 0.1 M AcOH/EtOH (1:1) and optical densities determined using a Dynatech MR600 microtiter plate reader. […] The compounds were prepared for in vivo treatment by dissolving or suspending, with the addition of minimal amounts of Tween 80, in water.

Assay [3] concerns HCT-116 human colon carcinoma cells. Briefly: In vitro cytotoxicity, HCT-116 human colon carcinoma cells (72 h, crystal violet). The assay is classed as cell-based. As to conditions: HCT-116 cells. As for the experimental part:
as §4

Regarding `[I-].[I-].[Pd+2].c1ccc(P(CCP(c2ccccc2)c2ccccc2)c2ccccc2)cc1.c1ccc(P(CCP(c2ccccc2)c2ccccc2)c2ccccc2)cc1` [TNO 342, Bis[1,2-(diphenylphosphino)ethane]diiodo palladium(II)], in the assay with P388 murine leukemia, the “P 388 Dose producing the maximum % T/C” value is reported as 5 mg/kg and the “P 388 Maximum % T/C” value is listed as 139 % T/C.

In the case of “Bis[1,2-bis(diphenylphosphino)ethane] iridium(I) perchlorate [TNO 344]”, in the assay on P388 murine leukemia, the “P 388 Dose producing the maximum % T/C” value is 200 mg/kg and the “P 388 Maximum % T/C” value worked out at 167 % T/C. For the same compound, in the assay with B16 Melanoma, the “B 16 Dose producing the maximum % T/C” value was found to be 20 mg/kg/inj and the “B 16 Maximum % T/C” value was determined as 150 % T/C.

On to `[Cl-].[Cl-].[O-][Cl+3]([O-])([O-])[O-].[Rh+3].c1ccc(P(CC[As](c2ccccc2)c2ccccc2)c2ccccc2)cc1.c1ccc(P(CC[As](c2ccccc2)c2ccccc2)c2ccccc2)cc1` [TNO 395, Bis[1-diphenylphosphino-2-diphenylarsinoethane]dichloro rhodium(III) perchlorate], for which, in the assay on P388 murine leukemia, the “P 388 Dose producing the maximum % T/C” value is 200 mg/kg and the “P 388 Maximum % T/C” value came out at 136 % T/C.

`[O-][Cl+3]([O-])([O-])[O-].[Rh+].c1ccc(P(CCP(c2ccccc2)c2ccccc2)c2ccccc2)cc1.c1ccc(P(CCP(c2ccccc2)c2ccccc2)c2ccccc2)cc1` [TNO 316, Bis[1,2-bis(diphenylphosphino)ethane]rhodium(I) perchlorate]: in the assay with P388 murine leukemia, the “P 388 Dose producing the maximum % T/C” value stood at 12.5 mg/kg and the “P 388 Maximum % T/C” value is listed as 150 % T/C. Besides, in the assay on L1210 murine leukemia, the “L1210 Dose producing the maximum % T/C” value came to 160 mg/kg and the “L1210 Max. % T/C” value is recorded as 133 % T/C. Also, in assay [1], the “L1210/DDP Dose producing the maximum % T/C” value was determined as 120 mg/kg and the “L1210/DDP Max. % T/C” value is reported as 157 % T/C. Besides, in the assay with B16 Melanoma, the “B 16 Dose producing the maximum % T/C” value worked out at 16 mg/kg/inj and the “B 16 Maximum % T/C” value turned out to be 131 % T/C.

Take “Bis[cis-1,2-bis(diphenylphosphino)ethylene]dichloro iron(III) tetrachloroferrate(III) [TNO 405]”: in the assay on P388 murine leukemia, the “P 388 Dose producing the maximum % T/C” value was 100 mg/kg and the “P 388 Maximum % T/C” value is listed as 160 % T/C.

As to “Bis[1,2-bis(diphenylphosphino)ethane] dichloro rhodium(III) perchlorate [TNO 355]”, in the assay on P388 murine leukemia, the “P 388 Dose producing the maximum % T/C” value is listed as 100 mg/kg and the “P 388 Maximum % T/C” value is reported as 167 % T/C. For the same compound, in the assay with L1210 murine leukemia, the “L1210 Dose producing the maximum % T/C” value is given as 80 mg/kg and the “L1210 Max. % T/C” value was 114 % T/C. Moreover, in assay [1], the “L1210/DDP Dose producing the maximum % T/C” value is 49 mg/kg and the “L1210/DDP Max. % T/C” value is 119 % T/C. Further, in the assay with B16 Melanoma, the “B 16 Dose producing the maximum % T/C” value is listed as 30 mg/kg/inj and the “B 16 Maximum % T/C” value was 171 % T/C.

With “Bis[1,2-bis(diphenylphosphino)ethane] cobalt(II) diperchlorate [TNO 358]”, in the assay on P388 murine leukemia, the “P 388 Dose producing the maximum % T/C” value is 100 mg/kg and the “P 388 Maximum % T/C” value came to 144 % T/C. In addition, in the assay on L1210 murine leukemia, the “L1210 Dose producing the maximum % T/C” value came to 120 mg/kg and the “L1210 Max. % T/C” value amounted to 142 % T/C. In addition, in assay [1], the “L1210/DDP Dose producing the maximum % T/C” value was 100 mg/kg and the “L1210/DDP Max. % T/C” value was 143 % T/C. In the assay with B16 Melanoma, the “B 16 Dose producing the maximum % T/C” value amounted to 20 mg/kg/inj and the “B 16 Maximum % T/C” value is given as 150 % T/C.

As for “Bis[1,2-bis(diphenylphosphino)ethane]palladium(II) dichlorate [TNO 306]”, the “IC 50 (concentration which inhibits cell growth by 50%), B 16” value in assay [2] worked out at 57 µg/mL. Also, in the assay with P388 murine leukemia, the “P 388 Dose producing the maximum % T/C” value was 60 mg/kg and the “P 388 Maximum % T/C” value is recorded as 144 % T/C. Besides, in the assay with L1210 murine leukemia, the “L1210 Dose producing the maximum % T/C” value worked out at 1.9 mg/kg and the “L1210 Max. % T/C” value came to 100 % T/C. In assay [1], the “L1210/DDP Dose producing the maximum % T/C” value stood at 3.0 mg/kg and the “L1210/DDP Max. % T/C” value was found to be 100 % T/C. In the assay on B16 Melanoma, the “B 16 Dose producing the maximum % T/C” value is 12 mg/kg/inj; the “B 16 Maximum % T/C” value is 202 % T/C and 151 % T/C.

For the compound “Bis[1,2-bis(diphenylphosphino)ethane] nickel(II) perchlorate [TNO 404]”, in the assay with P388 murine leukemia, the “P 388 Dose producing the maximum % T/C” value worked out at 25 mg/kg and the “P 388 Maximum % T/C” value is recorded as 240 % T/C.

As for `O=S(=O)([O-])C(F)(F)F.[Rh+].c1ccc(P(CCP(c2ccccc2)c2ccccc2)c2ccccc2)cc1.c1ccc(P(CCP(c2ccccc2)c2ccccc2)c2ccccc2)cc1` [TNO 302, Bis[1,2-bis(diphenylphosphino)ethane]rhodium(I) triflate], in the assay with P388 murine leukemia, the “P 388 Dose producing the maximum % T/C” value was determined as 4 mg/kg and the “P 388 Maximum % T/C” value amounted to 153 % T/C. Further, in the assay on B16 Melanoma, the “B 16 Dose producing the maximum % T/C” value is recorded as 3.2 mg/kg/inj; the “B 16 Maximum % T/C” value is 150 % T/C and 126 % T/C.

As to “Bis[cis-1,2-bis(diphenylphosphino)ethylene]palladium(II) dichloride [TNO 357]”, the “IC 50 (concentration which inhibits cell growth by 50%), B 16” value in assay [2] is 27.7 µg/mL. For the same compound, the “IC 50 (concentration which inhibits cell growth by 50%), HCT 116” value in assay [3] amounted to 13.1 µg/mL.

As to `[Br-].[Br-].[Co+2].c1ccc(P(CCP(c2ccccc2)c2ccccc2)c2ccccc2)cc1.c1ccc(P(CCP(c2ccccc2)c2ccccc2)c2ccccc2)cc1` [TNO 346, Bis[1,2-bis(diphenylphosphino)ethane]bromo cobalt(II) bromide], in the assay on P388 murine leukemia, the “P 388 Dose producing the maximum % T/C” value is reported as 100 mg/kg and the “P 388 Maximum % T/C” value is 167 % T/C. In the assay on L1210 murine leukemia, the “L1210 Dose producing the maximum % T/C” value is recorded as 200 mg/kg and the “L1210 Max. % T/C” value was determined as 100 % T/C.

As to `[O-][Cl+3]([O-])([O-])[O-].[O-][Cl+3]([O-])([O-])[O-].[Pd+2].c1ccc(P(CCP(c2ccccc2)c2ccccc2)c2ccccc2)cc1.c1ccc(P(CCP(c2ccccc2)c2ccccc2)c2ccccc2)cc1` [TNO 343, Bis[1,2-bis(diphenylphosphino)ethane]palladium(II) diperchlorate], in the assay with P388 murine leukemia, the “P 388 Dose producing the maximum % T/C” value is recorded as 200 mg/kg and the “P 388 Maximum % T/C” value is 178 % T/C. In the assay on B16 Melanoma, the “B 16 Dose producing the maximum % T/C” value came to 60 mg/kg/inj and the “B 16 Maximum % T/C” value worked out at 204 % T/C.

With `[Br-].[Br][Pd+].c1ccc(P(CCP(c2ccccc2)c2ccccc2)c2ccccc2)cc1.c1ccc(P(CCP(c2ccccc2)c2ccccc2)c2ccccc2)cc1` [TNO 376, Bis[1,2-bis(diphenylphosphino)ethane]bromo palladium(II) bromide], the “IC 50 (concentration which inhibits cell growth by 50%), B 16” value in assay [2] was found to be 0.7 µg/mL. Besides, the “IC 50 (concentration which inhibits cell growth by 50%), HCT 116” value in assay [3] came out at 6.3 µg/mL.

Turning to `[Ir+3].[O-][Cl+3]([O-])([O-])[O-].[O-][O-].c1ccc(P(CCP(c2ccccc2)c2ccccc2)c2ccccc2)cc1.c1ccc(P(CCP(c2ccccc2)c2ccccc2)c2ccccc2)cc1` [TNO 413, Bis[1,2-bis(diphenylphosphino)ethane]peroxo iridium(III) perchlorate], in the assay with P388 murine leukemia, the “P 388 Dose producing the maximum % T/C” value stood at 200 mg/kg and the “P 388 Maximum % T/C” value was found to be 170 % T/C.

With `[Cl-].[Cl-].[Cl-].[Rh+3].c1ccc(P(CCP(c2ccccc2)c2ccccc2)c2ccccc2)cc1.c1ccc(P(CCP(c2ccccc2)c2ccccc2)c2ccccc2)cc1` [TNO 363, Bis[1,2-bis(diphenylphosphino)ethane]dichloro rhodium(III) chloride], in the assay on P388 murine leukemia, the “P 388 Dose producing the maximum % T/C” value came to 50 mg/kg and the “P 388 Maximum % T/C” value is 133 % T/C.
